Data from ChEMBL document CHEMBL1146761, “Synthesis and biological activity of novel platinum(II) complexes of glutamate tethered to hydrophilic hematoporphyrin derivatives” (Bioorg Med Chem Lett, 2004).

Experiments:
[1] = test system: Mus musculus; experiment: In vivo antitumor activity of compound against leukemia L1210 cell line at 40 mg/kg; type: functional, organism-based; parameters: dose 40 mg/kg
[2] = test system: L1210; experiment: In vitro cytotoxicity activity of compound against leukemia L1210 cell line; type: functional, cell-based, Mus musculus
[3] = test system: Mus musculus; experiment: In vivo antitumor activity of compound against leukemia L1210 cell line at 60/30 mg/kg; value expressed as 102/106; type: functional
[4] = test system: Mus musculus; experiment: In vivo antitumor activity of compound against leukemia L1210 cell line at 4 mg/kg; type: functional, organism-based; parameters: dose 4 mg/kg
[5] = test system: Mus musculus; experiment: In vivo antitumor activity of compound against leukemia L1210 cell line at 60/30 mg/kg; value expressed as 97/107; type: functional

## CARBOPLATIN [listing 1 of 2 here]
[1]
  T/C: 168%

## COCCOCCOCCOC(C)c1c(C)c2cc3[nH]c(cc4nc(cc5nc(cc1[nH]2)C(C)=C5CCC(=O)O)C(CCC(=O)O)=C4C)c(C)c3C(C)OCCOCCOCCOC (configuration not stated)
[2]; Mus musculus, L1210
  IC50: 6.6 µM
[3]
  T/C: 106%

## CISPLATIN
[4]
  T/C: 184%

## CARBOPLATIN [listing 2 of 2 here]
[2]; l1210
  IC50: 9.92 µM

## COCCOC(C)c1c(C)c2cc3[nH]c(cc4nc(cc5nc(cc1[nH]2)C(C)=C5CCC(=O)O)C(CCC(=O)O)=C4C)c(C)c3C(C)OCCOC (configuration not stated)
[2]; Mus musculus, L1210
  IC50: 2.6 µM
[5]
  T/C: 107%
